The values below come from the CATMoS acute toxicity set (Mansouri et al. 2021).

This data set is described as follows: GHS categories as the set defines them, by LD50: 1 up to 5, 2 up to 50, 3 up to 300, 4 up to 2000, 5 above 2000 mg/kg. The settings on record: rat; in vivo; po.

For the compound `OC[C@H]1O[C@@H](OC[C@H]2O[C@@H](O[C@@H]3[C@@H](O)[C@H](O)O[C@H](CO)[C@H]3O)[C@H](O)[C@@H](O[C@@H]3O[C@H](CO)[C@@H](O)[C@H](O)[C@H]3O)[C@@H]2O)[C@H](O)[C@@H](O)[C@@H]1O`, the GHS category is recorded as 4. As for `COC(=O)Nc1nc2ccc(OCc3ccccc3)cc2[nH]1`, the GHS category is recorded as 5. Consider `COc1ccc2c(c1)CCN(c1ccccc1)C2c1ccccc1` (stereo unspecified), for which the GHS category stood at 4.

`NS(=O)(=O)c1ccc(N2CCCCS2(=O)=O)cc1` displayed a GHS category of 5. Compound `C/C=C(\C)C(=O)OCCc1ccccc1` came in with a GHS category of 5. Take `COC(=O)/C=C(/C)N[C@@H](C(=O)O)c1ccc(O)cc1`: the GHS category worked out at 5. The compound `CCCCCCOC(=O)CCC` had a GHS category of 5. The value for `CCCOC(=O)Cc1ccc(OCC(=O)N(CC)CC)c(OC)c1` was 5; that for `CCCc1c(Cc2ccc(-c3sccc3-c3nn[nH]n3)cc2)c(=O)nc2nc[nH]n12` was 4. For the compound `CCCCCCCCCCCCBr`, the GHS category came out at 5. `CCCCn1c(C)c(C(=O)NC2CCN(CCc3ccccc3)CC2)c2cc(O)ccc21` returned a GHS category of 5. The compound `Cc1cccc(C)c1NC(=O)CN1CCN(CCCC(c2ccc(F)cc2)c2ccc(F)cc2)CC1` gave a GHS category of 5.

For the compound `Nc1ccc2oc(=O)[nH]c2c1`, the GHS category was 4. Turning to `O=C1Cc2ccccc2O1`, the GHS category is given as 5.

The compound `CCOC(=O)C(=O)Nc1cc(SCCOCCOC)ncn1` yielded a GHS category of 4. `C[N+](C)(C)CC(=O)[O-]`: the GHS category is 5. The value for `N[C@@H](C(=O)N[C@@H]1C(=O)N2C(C(=O)O)=C(Cl)CS[C@H]12)c1ccccc1` was 5.

With `CC[n+]1c(-c2ccccc2)c2cc(N)ccc2c2ccc(N)cc21`, the GHS category is 5.

`N#CCCn1ccnc1`: the GHS category came to 4. The compound `CC(=O)OC1CC(C)CCC1C(C)C` (stereo unspecified) displayed a GHS category of 5.

Consider `OCCCCSc1ccc(Cl)cc1`, for which the GHS category was determined as 4. Under `CNC(=O)C(=NNc1cccc(Cl)c1)C(C)=O` stands 5; under `CSC(C)=NOC(=O)N(C)SN(C)C(=O)Oc1ccc(Sc2ccc(OC(=O)N(C)SN(C)C(=O)ON=C(C)SC)cc2)cc1`, 4. Under `CC1Oc2cc(C(=O)c3ccccc3)ccc2NC1=O` (stereo unspecified) stands 5; under `Nc1ccc(S(=O)(=O)c2ccc(NCCO)cc2)cc1`, 5; under `C=C(C)C(=O)OCCOC(=O)c1ccc2c(c1)C(=O)OC2=O`, 5. Turning to `COP(=O)(OC)Oc1ccc(Cl)cc1Cl`, the GHS category worked out at 3. `O=c1c2ccccc2c(=O)c2c1cc(Cl)c1[nH]c3c([nH]c12)c(Cl)cc1c(=O)c2ccccc2c(=O)c13`: the GHS category came out at 5. Under `CCC(C)(C)c1ccc(OP(=O)(NC)OC)c(Cl)c1` (stereo unspecified) stands 3. Compound `O=C(CCc1ccc2c(c1)OCO2)C1C(=O)CC(c2ccccc2)CC1=O` (stereo unspecified) yielded a GHS category of 5.

In turn, `CCCOC(=O)[C@H](C)O` gave a GHS category of 5. For `O=C1NCCCN1CN1CCOCC1`, the GHS category stood at 5. For `CCC=CCCCCCCCCCCCCCCOCC`, the GHS category is listed as 5. The compound `CCN(CCCCOC(=O)c1ccc(OC)c(OC)c1)C1CCc2cc(OC)ccc2C1` (stereo unspecified) registered a GHS category of 5. The value for `CCC(=O)OCC(=O)[C@@]1(OC(=O)CC)[C@@H](C)C[C@H]2[C@@H]3CCC4=CC(=O)C=C[C@]4(C)[C@@]3(F)[C@@H](O)C[C@@]21C` was 5. Compound `CCOc1cc(N)c(Cl)cc1C(=O)NCC1CN(Cc2ccc(F)cc2)CCO1` (stereo unspecified) came in with a GHS category of 5. The value for `CCOC(=O)NC(=S)Nc1ccccc1NC(=S)NC(=O)OCC` was 5. In the case of `CO/N=C(\C(=O)N[C@@H]1C(=O)N2C(C(=O)O)=CCS[C@H]12)c1csc(N)n1`, the GHS category worked out at 5.

`CCCCCCCCCCCC(=O)OCC(C)(C)C=NCC1(C)CC(N=CC(C)(C)COC(=O)CCCCCCCCCCC)CC(C)(C)C1` (stereo unspecified) showed a GHS category of 5. `COc1cc(C(=O)OCCCNCCC(c2ccccc2)c2ccccc2)cc(OC)c1OC` had a GHS category of 5. Under `O=[N+]([O-])c1ccc(C(O)C(CO)N=Cc2ccc(N(CCCl)CCCl)cc2)cc1` (stereo unspecified) stands 5; under `CN1C(=O)C(C)(C)Oc2cc(C(=O)C=Cc3ccc(Cl)cc3)ccc21`, 5. Turning to `O=C(O)c1cc(Br)nn1-c1ncccc1Cl`, the GHS category was 5.

Regarding `CCN(C(=O)SCc1ccccc1)C(C)C(C)C` (stereo unspecified), the GHS category is given as 5. `COc1cc2c(cc1OC)C(c1ccccc1Cl)N(c1ccccc1)CC2` (stereo unspecified) yielded a GHS category of 4. Compound `C=C(C)CCO` had a GHS category of 5. Under `CC1CC(c2ccccc2)C(c2ccccc2)C(=O)O1` (stereo unspecified) stands 4; under `O=c1ccc2cccnc2n1-c1cccc(C(F)(F)F)c1`, 3. On to `COc1cc(Cl)c(OC)cc1Cl`, for which the GHS category amounted to 5. `CCCCCCCCO`: the GHS category stood at 5.

The compound `N[C@@H](CSSC[C@H](N)C(=O)O)C(=O)O` had a GHS category of 5. In the case of `CCOCC=C(C)CCC=C(C)C`, the GHS category came to 5.

The compound `c1ccc(C2CCCCC2)cc1` displayed a GHS category of 5. Under `CC(=O)OC1CCC2CCCCC2C1` (stereo unspecified) stands 5; under `CC(=O)C1(c2ccccc2)CCN(CCCOc2ccc3c(c2)NC(=O)CC3)CC1`, 4; under `CN(CCOP(=O)(O)O)C(=N)N`, 5. In turn, `c1ccc(CSCc2ccccc2)cc1` yielded a GHS category of 5. The compound `CCCCCCCCCCCCCOC(=O)c1ccccc1C(=O)OCCCCCCCCCCCCC` had a GHS category of 5. Under `CCOC(=O)[C@H](CCc1ccccc1)N[C@@H](C)C(=O)N1[C@H](C(=O)O)C[C@H]2CCCC[C@@H]21` stands 5. For the compound `CCCCCCCC(=O)O[C@H]1CO[C@H]2[C@@H]1OC[C@H]2OC(=O)CCCCCCC`, the GHS category is reported as 5. Under `CCCc1c(Cc2ccc(-c3ccccc3-c3nn[nH]n3)cc2)c(=O)nc2nc(CO)[nH]n12` stands 4.

Turning to `CC1CC(OC(=O)COc2ccccc2Cl)CC(C)(C)C1` (stereo unspecified), the GHS category was 5. The value for `CC(CO)CO` was 5; that for `Cc1ccc2ncc(C(=O)NC3CCCC3)c(=O)n2c1` was 3; that for `CC(=O)SC[C@@H](C)C(=O)N1CCC[C@H]1C(=O)N[C@@H](Cc1ccccc1)C(=O)O` was 5. The value for `CSC(C)(C)SC` was 5.

Compound `CCCNC(=O)c1cnc2c(C)cccn2c1=O` showed a GHS category of 3. The compound `CC(C)=CCC(C#N)(CCN1CCCC1)c1cccc2ccccc12` (stereo unspecified) gave a GHS category of 4.

Turning to `CC(=O)OC1CN(C)C(=O)N1c1cc(C(C)(C)C)no1` (stereo unspecified), the GHS category worked out at 4. `C=CC(C)=CCC1OC1(C)C` (stereo unspecified) came in with a GHS category of 5. `CC1(c2ccc(Oc3ccccc3)cc2)OC(=O)N(Nc2ccccc2)C1=O` (stereo unspecified) displayed a GHS category of 5. Compound `Nc1nccnc1C(=O)O` had a GHS category of 5. For the compound `CCCC(CCC)C(=O)Oc1ccccc1OC`, the GHS category amounted to 5. `CCCCCCCCCCCCCC(=O)O` showed a GHS category of 5. The value for `COc1ccc(C2COc3ccccc3O2)cc1O` (stereo unspecified) was 5; that for `COc1ccc(C2(c3ccc(OC)c(C)c3)NC(=O)NC2=O)cc1` (stereo unspecified) was 5.

In the case of `COC1=C(OC)C(=O)C(CC=C(C)CCC=C(C)CCC=C(C)CCC=C(C)CCC=C(C)CCC=C(C)CCC=C(C)CCC=C(C)CCC=C(C)C)=C(C)C1=O`, the GHS category stood at 5. The value for `CCCc1c(Cc2ccc(-c3ccccc3-c3nn[nH]n3)cc2)c(OCCOC)nc2ncnn12` was 4; that for `CN(CC(=O)O)N=O` was 5; that for `CN1CC(O)N(c2cc(C(C)(C)C)on2)C1=O` (stereo unspecified) was 4. Compound `Cc1c(C)c2c(c(C)c1O)CCC(C)(COc1ccc(CC3SC(=O)NC3=O)cc1)O2` (stereo unspecified) registered a GHS category of 5. `CSCCC(NC(=O)C(N)Cc1c[nH]c2ccccc12)C(=O)NC(CC(=O)O)C(=O)NC(Cc1ccccc1)C(N)=O` (stereo unspecified) displayed a GHS category of 5. `COc1ccc([C@@H]2CC(=O)c3c(O)cc(O[C@@H]4O[C@H](CO[C@@H]5O[C@@H](C)[C@H](O)[C@@H](O)[C@H]5O)[C@@H](O)[C@H](O)[C@H]4O)cc3O2)cc1O` came in with a GHS category of 5. Turning to `Cc1cc2c(cc1S(N)(=O)=O)S(=O)(=O)CCC2`, the GHS category was 5. Compound `CCCCCC1=C(CC(=O)OC)CCC1=O` yielded a GHS category of 5. The compound `COc1cc(OC)nc(NC(=O)NS(=O)(=O)c2c(C(=O)O)cnn2C)n1` came in with a GHS category of 5.

Consider `Cn1c2cc(C(F)(F)F)ccc2c2oc(C(=O)NCCCN3CCCCC3)cc21`, for which the GHS category stood at 4.

Turning to `CC(C)N1CCN(C(=O)c2ccc(OC(=O)C3CCCc4ccccc43)cc2)CC1` (stereo unspecified), the GHS category turned out to be 5. With `CC(C)CC(=O)OC1CC(C)CCC1C(C)C` (stereo unspecified), the GHS category was found to be 5. For the compound `CC(C)OC(=O)c1ccccc1OC(N)=O`, the GHS category amounted to 5.

Compound `NC[C@H]1O[C@H](O[C@H]2[C@H](O)[C@@H](O[C@H]3O[C@H](CO)[C@@H](O)[C@H](N)[C@H]3O)[C@H](N)C[C@@H]2N)[C@H](O)[C@@H](O)[C@@H]1O` returned a GHS category of 5. In turn, `CN(CC1(C)CCCO1)S(=O)(=O)c1ccc(Cl)c(S(N)(=O)=O)c1` (stereo unspecified) came in with a GHS category of 5. The compound `CN[C@H](CC(C)C)C(=O)N[C@H]1C(=O)N[C@@H](CC(N)=O)C(=O)N[C@H]2C(=O)N[C@H]3C(=O)N[C@H](C(=O)N[C@@H](C(=O)O)c4cc(O)cc(O)c4-c4cc3ccc4O)[C@H](O)c3ccc(c(Cl)c3)Oc3cc2cc(c3O[C@@H]2O[C@H](CO)[C@@H](O)[C@H](O)[C@H]2O[C@H]2C[C@](C)(N)C(O)[C@H](C)O2)Oc2ccc(cc2Cl)[C@H]1O` (stereo partly specified) returned a GHS category of 5. Under `C=C(C)C(=O)OCCOC(=O)CC(C)=O` stands 5; under `Cc1cc(C(=O)NCCc2ccc(S(=O)(=O)NC(=O)NC3CCCCC3)cc2)no1`, 5.

Take `COC(=O)c1ccccc1S(=O)(=O)NC(=O)N(C)c1nc(C)nc(OC)n1`: the GHS category is 5.
